# Patent US20150105252A1, “SUBSTITUTED PYRAZOLES AS HERBICIDES” (E I DU PONT DE NEMOURS AND COMPANY, priority 2013, published 2015)
# Legend:
# foxtail, green = test: Test D postemergence; format: in vivo, Setaria viridis; conditions: scale 0 to 100
# From the text: (§1) Seeds of plant species selected from bluegrass (annual bluegrass, Poa annua), blackgrass (Alopecurus myosuroides), canarygrass (littleseed canarygrass, Phalaris minor), chickweed (common chickweed, Stellaria media), galium (catchweed bedstraw, Galium aparine), bromegrass, downy (downy bromegrass, Bromus tectorum), field poppy (Papaver rhoeas), field violet (Viola arvensis), foxtail, green (green foxtail, Setaria viridis), deadnettle (henbit deadnettle, Lamium amplexicaule), ryegrass, Italian (Italian ryegrass, Lolium multiflorum), kochia (Kochia scoparia), lambsquarters (Chenopodium album), oilseed rape (Brassica napus), pigweed (redroot pigweed, Amaranthus retroflexus), chamomile (scentless chamomile, Matricaria inodora), speedwell (bird's-eye speedwell, Veronica persica), barley, spring (spring barley, Hordeum vulgare), wheat, spring (spring wheat, Triticum aestivum), buckwheat, wild (wild buckwheat, Polygonum convolvulus), mustard, wild (wild mustard, Sinapis arvensis), oat, wild (wild oat, Avena fatua), radish, wild (wild radish, Raphanus raphanistrum), windgrass (Apera spica-venti), Russian thistle (Salsola kali), barley, winter (winter barley, Hordeum vulgare), and wheat, winter (winter wheat, Triticum aestivum) were planted into a silt loam soil and treated preemergence with test chemicals formulated in a non-phytotoxic solvent mixture which included a surfactant.
# (§2) At the same time, these species were planted in pots containing Redi-Earth® planting medium (Scotts Company, 14111 Scottslawn Road, Marysville, Ohio 43041) comprising spaghnum peat moss, vermiculite, wetting agent and starter nutrients and treated with postemergence applications of the test chemicals formulated in the same manner. Plants ranged in height from 2 to 18 cm (1- to 4-leaf stage). Treated plants and controls were maintained in a controlled growth environment for 14 to 21 days after which time all species were compared to controls and visually evaluated. Plant response ratings, summarized in Table D, are based on a scale of 0 to 100 where 0 is no effect and 100 is complete control. A dash (-) response means no test result.
# kochia = test: Test D preemergence; format: in vivo, Kochia scoparia; conditions: Preemergence, scale 0 to 100
# From the text: as §1, §2
# oat, wild = test: Test D postemergence; format: in vivo, Avena fatua; conditions: scale 0 to 100
# From the text: as §1, §2
# speedwell = test: Test D postemergence; format: in vivo, Veronica persica; conditions: scale 0 to 100
# Procedure, shortened: (§3)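 Seeds are planted in silt loam and treated preemergence, while parallel plantings in a peat moss/vermiculite medium with starter nutrients receive postemergence sprays at the 1- to 4-leaf stage. All formulations use a non-phytotoxic solvent mixture with surfactant. Plants are kept in a controlled growth environment and rated visually after 14–21 days.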
# deadnettle = test: Test D preemergence; format: in vivo, Lamium amplexicaule; conditions: Preemergence, scale 0 to 100
# From the text: as §1, §2
# wheat, winter = test: Test D postemergence; format: in vivo, Triticum aestivum; conditions: scale 0 to 100
# From the text: as §1, §2
# wheat, spring = test: Test D postemergence; format: in vivo, Triticum aestivum; conditions: scale 0 to 100
# From the text: as §1, §2
# buckwheat, wild = test: Test D preemergence; format: in vivo, Polygonum convolvulus; conditions: Preemergence, scale 0 to 100
# From the text: as §1, §2
# ryegrass, Italian = test: Test D preemergence; format: in vivo, Lolium multiflorum; conditions: Preemergence, scale 0 to 100
# From the text: as §1, §2
# lambsquarters [1] = test: Test D postemergence; format: in vivo, Chenopodium album; conditions: scale 0 to 100
# Procedure, shortened: as §3
# canarygrass = test: Test D preemergence; format: in vivo, Phalaris minor; conditions: Preemergence, scale 0 to 100
# From the text: as §1, §2
# lambsquarters [2] = test: Test D preemergence; format: in vivo, Chenopodium album; conditions: Preemergence, scale 0 to 100
# From the text: as §1, §2
# bromegrass, downy = test: Test D postemergence; format: in vivo, Bromus tectorum; conditions: scale 0 to 100
# From the text: as §1, §2
# field poppy = test: Test D postemergence; format: in vivo, Papaver rhoeas; conditions: scale 0 to 100
# Procedure, shortened: as §3
# mustard, wild = test: Test D preemergence; format: in vivo, Sinapis arvensis; conditions: Preemergence, scale 0 to 100
# Procedure, shortened: as §3
# barley, spring = test: Test D postemergence; format: in vivo, Hordeum vulgare; conditions: scale 0 to 100
# Procedure, shortened: as §3
# barley, winter = test: Test D postemergence; format: in vivo, Hordeum vulgare; conditions: scale 0 to 100
# Procedure, shortened: as §3
smiles,measurement,setting,value
CCc1cc(C(=O)NCC(F)(F)F)nn1Cc1ccnc(SC(F)(F)F)c1 [Compound 214],"Foxtail, Green plant response rating","foxtail, green; Postemergence, 31 g ai/ha",15
same,"Foxtail, Green plant response rating","foxtail, green; Postemergence, 125 g ai/ha",35
same,"Foxtail, Green plant response rating","foxtail, green; Postemergence, 250 g ai/ha",60
same,"Foxtail, Green plant response rating","foxtail, green; postemergence, 62 g ai/ha",15
same,"Plant response rating, Kochia",kochia; 62 g ai/ha,70
same,"Plant response rating, Kochia",kochia; 125 g ai/ha,100
same,"Plant response rating, Kochia",kochia; 250 g ai/ha,100
same,"Oat, Wild plant response rating","oat, wild; Postemergence, 31 g ai/ha",15
same,"Oat, Wild plant response rating","oat, wild; Postemergence, 125 g ai/ha",20
same,"Oat, Wild plant response rating","oat, wild; Postemergence, 250 g ai/ha",40
same,"Oat, Wild plant response rating","oat, wild; postemergence, 62 g ai/ha",15
same,Speedwell plant response rating,"speedwell; Postemergence, 31 g ai/ha",90
same,Speedwell plant response rating,"speedwell; Postemergence, 125 g ai/ha",95
same,Speedwell plant response rating,"speedwell; Postemergence, 250 g ai/ha",100
same,Speedwell plant response rating,"speedwell; postemergence, 62 g ai/ha",90
same,"Plant response rating, Deadnettle",deadnettle; 31 g ai/ha,90
same,"Plant response rating, Deadnettle",deadnettle; 62 g ai/ha,100
same,"Plant response rating, Deadnettle",deadnettle; 125 g ai/ha,100
same,"Plant response rating, Deadnettle",deadnettle; 250 g ai/ha,100
same,"Wheat, Winter plant response rating","wheat, winter; Postemergence, 31 g ai/ha",15
same,"Wheat, Winter plant response rating","wheat, winter; Postemergence, 125 g ai/ha",20
same,"Wheat, Winter plant response rating","wheat, winter; Postemergence, 250 g ai/ha",40
same,"Wheat, Winter plant response rating","wheat, winter; postemergence, 62 g ai/ha",15
same,"Wheat, Spring plant response rating","wheat, spring; Postemergence, 31 g ai/ha",15
same,"Wheat, Spring plant response rating","wheat, spring; Postemergence, 125 g ai/ha",15
same,"Wheat, Spring plant response rating","wheat, spring; Postemergence, 250 g ai/ha",20
same,"Wheat, Spring plant response rating","wheat, spring; postemergence, 62 g ai/ha",15
same,"Plant response rating, Buckwheat, Wild","buckwheat, wild; 31 g ai/ha",35
same,"Plant response rating, Buckwheat, Wild","buckwheat, wild; 62 g ai/ha",95
same,"Plant response rating, Buckwheat, Wild","buckwheat, wild; 125 g ai/ha",90
same,"Plant response rating, Buckwheat, Wild","buckwheat, wild; 250 g ai/ha",100
same,"Plant response rating, Ryegrass, Italian","ryegrass, Italian; 62 g ai/ha",55
same,"Plant response rating, Ryegrass, Italian","ryegrass, Italian; 125 g ai/ha",70
same,"Plant response rating, Ryegrass, Italian","ryegrass, Italian; 250 g ai/ha",90
same,Lambsquarters plant response rating,"lambsquarters [1]; Postemergence, 31 g ai/ha",65
same,Lambsquarters plant response rating,"lambsquarters [1]; Postemergence, 125 g ai/ha",80
same,Lambsquarters plant response rating,"lambsquarters [1]; Postemergence, 250 g ai/ha",90
same,Lambsquarters plant response rating,"lambsquarters [1]; postemergence, 62 g ai/ha",65
same,"Plant response rating, Canarygrass",canarygrass; 31 g ai/ha,40
same,"Plant response rating, Canarygrass",canarygrass; 62 g ai/ha,65
same,"Plant response rating, Canarygrass",canarygrass; 125 g ai/ha,100
same,"Plant response rating, Canarygrass",canarygrass; 250 g ai/ha,100
same,"Plant response rating, Lambsquarters",lambsquarters [2]; 62 g ai/ha,90
same,"Plant response rating, Lambsquarters",lambsquarters [2]; 125 g ai/ha,100
same,"Plant response rating, Lambsquarters",lambsquarters [2]; 250 g ai/ha,100
same,"Bromegrass, Downy plant response rating","bromegrass, downy; Postemergence, 31 g ai/ha",15
same,"Bromegrass, Downy plant response rating","bromegrass, downy; Postemergence, 125 g ai/ha",20
same,"Bromegrass, Downy plant response rating","bromegrass, downy; Postemergence, 250 g ai/ha",20
same,"Bromegrass, Downy plant response rating","bromegrass, downy; postemergence, 62 g ai/ha",15
same,Field Poppy plant response rating,"field poppy; Postemergence, 31 g ai/ha",70
same,Field Poppy plant response rating,"field poppy; Postemergence, 125 g ai/ha",70
same,Field Poppy plant response rating,"field poppy; Postemergence, 250 g ai/ha",80
same,Field Poppy plant response rating,"field poppy; postemergence, 62 g ai/ha",70
same,"Plant response rating, Mustard, Wild","mustard, wild; 62 g ai/ha",100
same,"Plant response rating, Mustard, Wild","mustard, wild; 125 g ai/ha",100
same,"Plant response rating, Mustard, Wild","mustard, wild; 250 g ai/ha",100
same,"Barley, Spring plant response rating","barley, spring; Postemergence, 31 g ai/ha",15
same,"Barley, Spring plant response rating","barley, spring; Postemergence, 125 g ai/ha",20
same,"Barley, Spring plant response rating","barley, spring; Postemergence, 250 g ai/ha",40
same,"Barley, Spring plant response rating","barley, spring; postemergence, 62 g ai/ha",15
same,"Barley, Winter plant response rating","barley, winter; Postemergence, 31 g ai/ha",20
same,"Barley, Winter plant response rating","barley, winter; Postemergence, 125 g ai/ha",30
same,"Barley, Winter plant response rating","barley, winter; Postemergence, 250 g ai/ha",35
same,"Barley, Winter plant response rating","barley, winter; postemergence, 62 g ai/ha",20
